Test results as given in patent US11311610B2, “Immune-modulating agents and uses therefor” (UNIVERSITY OF TECHNOLOGY SYDNEY, priority 2010, dated 2022).
Where a SMILES comes first, the peptide text is derived from it.

What was measured:
[1] = system: ATPase activity associated with lysosomal membranes (equivalent to vATPase activity); experiment: ATPase activity of enriched lysosomal membranes; format: biochemical, murine; conditions: lysosomal membranes from RAW264.7 macrophage lysates
Experimental: FIG. 17 is a graphical representation showing that FhHDM-1 P3 inhibits ATPase activity associated with lysosomal membranes in a concentration-dependent manner. A cellular fraction enriched for lysosomes was prepared by sequential centrifugation of RAW264.7 macrophage lysates. The lysosomal membranes were recovered and assayed (with or without HDM peptides) for ATPase activity using a commercially available kit.
FIG. 18 is a diagrammatic representation showing a sequence alignment of various synthetic HDM peptides. The amphipathic helix is shaded in grey as are the mutated residues in peptides nonHP and 2Pro. NonHP is a variant of FhHDM-1 P3 in which the hydrophobic face of the FhHDM-1 amphipathic helix was removed. 2Pro is a variant of FhHDM-1 P3 in which two prolines substitutions were incorporated to disrupt the alpha-helix. Cons_p3 is a consensus peptide corresponding to various FhHDM-1 homologs. All peptides in the alignment were tested for their ability to inhibit the ATPase activity associated with enriched lysosomal membranes (prepared from RAW macrophages). Those with inhibitory activity are shown in bold text.
A cellular fraction enriched for lysosomes was prepared by sequential centrifugation of RAW264.7 macrophage lysates. The lysosome pellet was extracted with water and the resulting lysosomal membranes were recovered and assayed (with or without HDM peptides) for ATPase activity using a commercially available kit.

[2] = established T1D, early randomized trials; cited from earlier work
RAW macrophages = experiment: ATP induced macrophage cell death (LDH release); format: cell-based, murine; conditions: 20 μg/mL pre-treatment 1 h, then ATP 5 mM 2 h
Experimental: FIG. 16 is a graphical representation showing that FhHDM-1 P3 prevents ATP induced cell death in RAW macrophages. RAW macrophages were pretreated with either FhHDM-1 (20 μg/mL) or FhHDM-1 p3 (20 μg/mL) for 1 h, then washed and cultured in the presence of ATP (5 mM) for 2 h. Cell death (% cytotoxicity) was quantified according to the amount of LDH released by the cells into culture media.
Raw macrophages were pre-treated with either HDM (20 μg/mL) or FhHDM-1 P3 (20 μg/mL) for 1 h, washed and then cultured in the presence of ATP (5 mM) for 2 h. The culture supernatants were collected and assayed for LDH activity with an LDH release kit. The amount of LDH release by cells treated with ATP only was used to represent 100% cytotoxicity.

[3] = system: interaction of LPS with LPS-binding protein (LBP); experiment: Assay for the interaction of LPS with LBP (ELISA); set-up: species or system mouse; conditions: 5 μg/well, 1 h before 10% sera; ELISA with anti-LBP
Experimental: (§1) FIG. 9 is a graphical representation showing LPS neutralization by FhHDM-1. The ability of FhHDM-1 (Δ), FhHDM-1 p1 (●) or FhHDM-1 p3 (▪) to bind to LPS was investigated by (A) incubating a range of concentrations of proteins (0.02-2 μg/well) in an LPS-coated (100 ng/well) microtitre plate. Bound peptides were detected by ELISA using rabbit anti-FhHDM-1 as a primary antibody. (B) FhHDM-1 or derived peptides (0.1 μg) were incubated in the presence of LPS (0.05-5 μg/well) and bound peptides measured as described above. Binding of peptides to the LPS-immobilized plates was expressed as a percentage of that measured for 2 μg (for panel A) or 0.1 μg (for panel B) of FhHDM-1. Data are the means±SD from three separate experiments. (C) FhHDM-1 and FhHDM-1 p3 but not FhHDM-1 p1 reduced the interaction between LPS and LBP as effectively as LL-37. LPS-coated microtitre plates were incubated with 5 μg/well of LL-37, FhHDM-1 or derived peptides for 1 h prior to the addition of 10% human sera in PBS. Interaction of LBP with LPS was measured by ELISA using an anti-LBP primary antibody and expressed as a percentage of that detected for 10% sera in the absence of added peptides. Data are the mean±SD of three separate experiments. Statistical significance was calculated using the student t-test and represent a comparison to the binding of 10% sera to immobilized LPS. (D) Binding of FITC-conjugated LPS to RAW264.7 cells was inhibited by LL-37, FhHDM-1 and peptides. […] The binding of FITC-LPS was analyzed by flow cytometry. LPS binding was expressed as a percentage of the mean fluorescence obtained for the addition of FITC-LPS to cells in the absence of peptides. […] Two hours later, sera was collected and serum levels of TNF and (F) IL-10 measured by ELISA. (G) Peritoneal macrophages were isolated, cultured unstimulated in media overnight and then levels of TNF and (H) IL-10 in the culture measured by ELISA. […]
The ability of FhHDM-1 and derived peptides to block the interaction of LPS with LPB was assessed by ELISA using an anti-LBP primary antibody. […]

RAW264.7 cells = experiment: Binding of FITC-conjugated LPS to RAW 264.7 cells (flow cytometry); format: cell-based, murine; conditions: 0.1-10 μg/mL, 20 min at 4° C.
Experimental: as §1
The effect of FhHDM-1 and derived peptides on the binding of FITC-LPS to CD14+ cells was determined by flow cytometry of the murine macrophage cell line RAW264.7. […]

[4] = system: LPS-induced inflammatory response; experiment: Endotoxin (LPS)-induced inflammation in mice, co-injection; format: in vivo, BALB/c mice
Experimental: FIG. 9 is a graphical representation showing LPS neutralization by FhHDM-1. The ability of FhHDM-1 (Δ), FhHDM-1 p1 (●) or FhHDM-1 p3 (▪) to bind to LPS was investigated by (A) incubating a range of concentrations of proteins (0.02-2 μg/well) in an LPS-coated (100 ng/well) microtitre plate. Bound peptides were detected by ELISA using rabbit anti-FhHDM-1 as a primary antibody. (B) FhHDM-1 or derived peptides (0.1 μg) were incubated in the presence of LPS (0.05-5 μg/well) and bound peptides measured as described above. Binding of peptides to the LPS-immobilized plates was expressed as a percentage of that measured for 2 μg (for panel A) or 0.1 μg (for panel B) of FhHDM-1. Data are the means±SD from three separate experiments. (C) FhHDM-1 and FhHDM-1 p3 but not FhHDM-1 p1 reduced the interaction between LPS and LBP as effectively as LL-37. LPS-coated microtitre plates were incubated with 5 μg/well of LL-37, FhHDM-1 or derived peptides for 1 h prior to the addition of 10% human sera in PBS. Interaction of LBP with LPS was measured by ELISA using an anti-LBP primary antibody and expressed as a percentage of that detected for 10% sera in the absence of added peptides. Data are the mean±SD of three separate experiments. Statistical significance was calculated using the student t-test and represent a comparison to the binding of 10% sera to immobilized LPS. (D) Binding of FITC-conjugated LPS to RAW264.7 cells was inhibited by LL-37, FhHDM-1 and peptides. RAW264.7 cells (5×10^5 cells/mL) were incubated with 1 μg/mL of FITC-conjugated LPS in the presence of increasing concentrations (0.1-10 μg/mL) of FhHDM-1, FhHDM-1 p1 and FhHDM-1 p3 and LL-37 in RPMI 1640 containing 10% FBS for 20 min at 4° C. The binding of FITC-LPS was analyzed by flow cytometry. LPS binding was expressed as a percentage of the mean fluorescence obtained for the addition of FITC-LPS to cells in the absence of peptides. Data are the mean±SD of two independent experiments. (E) FhHDM-1 and FhHDM-1 p3 both suppress the inflammatory response induced by LPS in mice. BALB/c mice were intra-peritoneally injected with 1 μg of LPS alone or combined with 1 μg of FhHDM-1, FhHDM-1 p3 or LL-37. Two hours later, sera was collected and serum levels of TNF and (F) IL-10 measured by ELISA. (G) Peritoneal macrophages were isolated, cultured unstimulated in media overnight and then levels of TNF and (H) IL-10 in the culture measured by ELISA. Data are the mean±SD of six mice in each group. Statistical significance represents a comparison to the levels of cytokines secreted by mice given LPS only.
Human Defense peptides protect against harmful inflammatory responses by preventing activation of macrophages by classical TLR ligands such as LPS (Scott et al. 2002, J. Immunol. 169, 3883-3891). Here, the inventors employed a murine model to examine whether FhHDM-1 and derived peptides can suppress LPS-induced Th1 inflammation. BALB/c mice were injected intra-peritoneally with 1 μg of LPS alone or LPS combined with 1 μg of FhHDM-1, FhHDM-1 p3 or LL-37. Two hours later, sera was collected and serum levels of the pro-inflammatory mediators TNF and IL-10 were measured by ELISA. […] Because macrophages are the main source of pro-inflammatory mediators in this murine model of inflammation, peritoneal macrophages were isolated from treated mice (LPS±FhHDM-1, peptides or LL-37 as described above), cultured unstimulated in media overnight and then levels of TNF and IL-10 in the culture media were measured by ELISA.
Six week-old female BALB/c mice were purchased from ARC (Perth, Australia) and maintained according to the guidelines of the University of Technology Sydney Animal Care and Ethics committee. For the analysis for endotoxin-induced inflammation, mice were intra-peritoneally injected with 1 μg of E. coli LPS (serotype 111:B4; Sigma) either with or without 1 μg FhHDM-1 or derived peptides. After 2 h mice were sacrificed by cervical dislocation. […]

[5] = BALB/c mice, 1 μg LPS mixed with 1 μg i.p., 2 h
[6] = macrophages from treated mice, cultured unstimulated overnight

HDMp2: SEQ ID NO:122, 27 aa, comprising a shorter amphipathic helix than FhHDM-1 peptide 3 (NLGEKITEVITILLNRLTDRLEKYAGN; FhHDM-1 peptide 2)
ATPase activity associated with lysosomal membranes [1]: inhibitory

Cn1cnc([N+](=O)[O-])c1Sc1ncnc2nc[nH]c12 [azathioprine]
treated patients becoming independent of insulin therapy [2]: approximately 50%

CC[C@H](C)[C@H](NC(=O)[C@H](CCCCN)NC(=O)[C@H](CCC(=O)O)NC(=O)CNC(=O)[C@H](CC(C)C)NC(=O)[C@H](CC(N)=O)NC(=O)[C@H](CC(=O)O)NC(=O)[C@H](CCCCN)NC(=O)[C@H](C)NC(=O)[C@H](CC(C)C)NC(=O)[C@H](Cc1ccc(O)cc1)NC(=O)[C@H](C)NC(=O)[C@H](CCSC)NC(=O)[C@H](C)N)C(=O)N[C@H](C(=O)N[C@@H](CCC(=O)O)C(=O)N[C@H](C(=O)N[C@H](C(=O)N[C@H](C(=O)N[C@H](C(=O)N[C@@H](CC(C)C)C(=O)N[C@@H](CC(C)C)C(=O)N[C@@H](CC(N)=O)C(=O)N[C@@H](CCCNC(=N)N)C(=O)N[C@@H](CC(C)C)C(=O)N[C@H](C(=O)N[C@@H](CC(=O)O)C(=O)N[C@@H](CCCNC(=N)N)C(=O)N[C@@H](CC(C)C)C(=O)N[C@@H](CCC(=O)O)C(=O)N[C@@H](CCCCN)C(=O)N[C@@H](Cc1ccc(O)cc1)C(=O)N[C@@H](C)C(=O)NCC(=O)O)[C@@H](C)O)[C@@H](C)CC)[C@@H](C)O)[C@@H](C)CC)C(C)C)[C@@H](C)O [FhHDM-1 p3] (H-AMAYLAKDNLGEKITEVITILLNRLTDRLEKYAG-OH)
LDH release induced by ATP (cytotoxicity of ATP) (RAW macrophages): inhibited LDH release

LL-37 [reference compound]
interaction between LPS and LBP [3]: significantly reduced | binding of FITC-LPS to RAW264.7 macrophages (RAW264.7 cells): most strongly inhibited | serum levels of IL-10 [4, 5]: significant reduction | serum levels of TNF [4, 5]: significant reduction | LPS-induced secretion of IL-10 from peritoneal macrophages [4, 6]: significantly inhibited | TNF secreted from peritoneal macrophages [4, 6]: did not significantly reduce
